Reference: patent US7745450B2, “Pyrazolo[4,3-d]pyrimidines, processes for their preparation and methods for therapy” (Institute of Experimental Botany, priority 2002, dated 2010)
Read-outs that look alike come from different tables or passages of the source. Values belong to the compound of their own block, whether it stands above or below them.

Tests used:
[1] = system: T-lymphocyte leukemia Molt3 cell line; test: Cell proliferation of Molt3, flow cytometric cell count; type: cell-based, human; conditions: 96 hours
Description: Cell lines: Human leukemic cell lines were obtained from the American Type Culture Collection (ATCC, Rockville, Md., USA). They were cultured in Iscove's Modified Dulbecco's Medium (IMDM) supplemented with 10% heat inactivated fetal calf serum (FCS), 200 U/ml penicillin, 200 μg/ml streptomycin and 1 μg/ml amphotericin B. Cells were cultured in a 5% CO2-95% air fully humidified incubator. For effects on clonogenic output, 1000 cells/well were plated in duplicate in methylcellulose (0.9%), supplemented with 20% FCS for 14 days.
Cells were plated at 10000 per well in 200 μl IMDM medium and incubated with 0-50 μM of the novel compounds (Tab 8), by addition of drug directly to the culture medium and incubated at 37° C. for 96 hours (Tab 8). Absolute cell number was determined by addition of a known concentration Fluoresbrite microspheres (FITC) (Polysciences, Inc.). The absolute number of cells/well was calculated as: {(total number of beads added/well)/(number of beads measured)×(number of measured cells in the gate of interest)}. All analyses were performed with a FACScan (BD), using CELLQuest software (Becton Dickinson).
Response of the myeloid leukemia KG1 and T-lymphocyte leukemia Molt3 cell lines to the cytostatic effect of the novel compounds was determined using the above-mentioned standardized bead suspension that was used to determine the absolute cell number by flow cytometric (FCM) measurement. Cells were grown in the presence of increasing concentration of the novel compounds.

[2] = system: CD34+CD38+ hematopoietic progenitors from adult bone marrow; test: Myeloid colony-forming unit (CFU) assay; type: cell-based, human; conditions: for IC50: 14 days; for Colony output for CFU-E, CFU-G and CFU-M (output of the different types of myeloid colonies): scored differentially
Excerpt: Adult Bone Marrow Cells (ABM): Bone marrow samples were obtained by sternal puncture from hematologically normal donors undergoing cardiac surgery, after obtaining informed consent according to the ethical regulations of the University of Antwerp. Cells were collected in IMDM supplemented with 10% FCS and 100 U/ml heparin and separated by density gradient as mentioned for PBMC. After washing, cells were resuspended in IMDM 10% FCS and were sorted on a FACStar (Becton Dickinson, Erembodegem, Belgium). Cell sorting: ABM cells (10^7 cells/ml) were incubated with 43A1 hybridoma supernatant at a 1/10 dilution for 20 minutes at 4° C. The supernatant of the 43A1 hybridoma (immunoglobulin IgG3) was kindly donated by Dr. […] (University of Tübingen, Germany) and was used as a source of anti-CD34 antibodies. After washing twice in IMDM, the cells were incubated with FITC-conjugated rabbit anti-mouse IgG (1/40 dilution) for 20 min at 4° C. […] After washing twice in IMDM, the cells were sorted on a FACStarPlus cell sorter equipped with an water-cooled argon ion laser (INNOVA Enterprise Ion Laser) with multiple wave length outputs including UV (488 nm). Cells with low-to-medium forward and low side scatter, highly positive green (CD34) fluorescence, and an orange (CD38) fluorescence signal lower than the mean fluorescence of cells labeled with an irrelevant isotype-matched control antibody were retained as CD34^+CD38^- cells; cells with an orange fluorescence above this threshold were retained as CD34^+CD38^+ cells. Myeloid Colony-forming unit (CFU) assays: Direct myeloid colony formation of CD34^+CD38^+ cells was assessed in a CFU assay. These assays were initiated with 500 cells per well and plated in duplicate in methylcellulose (0.9%) supplemented with 20% FCS, 1% bovine serum albumin (BSA), 10^-5 M mercaptoethanol and 10 vol. % 5637 conditioned medium of the 5637 bladder carcinoma cell line (containing G-CSF and GM-CSF), 2 U/ml erythropoietin and 30 U/ml interleukine-3 (IL-3). […] The following colony types were scored: myeloid colonies: macrophage (CFU-M), granulocyte (CFU-G), and granulocyte-macrophage (CFU-GM); erythroid colonies (BFU-E (burst-forming units, erythroid) and CFU-E); and mixed erythroid-myeloid colonies (CFU-Mix). CD34^+CD38^+ hematopoietic progenitors (HPC) from adult bone marrow were isolated and investigated for response to novel compounds. CD34^+CD38^+ cells were grown in a methylcellulose system in the presence of increasing concentrations of compounds.

cdk1/cyclin B (CDC2) = cdk1/cyclin B (CDC2) (Homo sapiens, UniProt P06493); test: CDK inhibition assay, cdk1/cyclin B (CDC2) kinase, histone phosphorylation; type: biochemical; conditions: cell free system (Table 8)
Sequence of cdk1/cyclin B (CDC2) (P06493 whole entry, species assumed): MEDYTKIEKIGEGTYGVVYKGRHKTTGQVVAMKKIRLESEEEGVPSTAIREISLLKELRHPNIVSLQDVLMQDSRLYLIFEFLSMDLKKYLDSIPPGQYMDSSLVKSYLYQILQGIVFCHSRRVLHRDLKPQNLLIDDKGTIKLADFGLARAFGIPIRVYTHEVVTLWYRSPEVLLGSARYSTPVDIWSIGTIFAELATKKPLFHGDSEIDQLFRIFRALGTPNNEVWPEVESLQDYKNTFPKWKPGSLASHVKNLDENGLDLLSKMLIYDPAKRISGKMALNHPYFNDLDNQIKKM
Sequence of cdk1/cyclin B (CDC2) (P14635 whole entry partner, species assumed): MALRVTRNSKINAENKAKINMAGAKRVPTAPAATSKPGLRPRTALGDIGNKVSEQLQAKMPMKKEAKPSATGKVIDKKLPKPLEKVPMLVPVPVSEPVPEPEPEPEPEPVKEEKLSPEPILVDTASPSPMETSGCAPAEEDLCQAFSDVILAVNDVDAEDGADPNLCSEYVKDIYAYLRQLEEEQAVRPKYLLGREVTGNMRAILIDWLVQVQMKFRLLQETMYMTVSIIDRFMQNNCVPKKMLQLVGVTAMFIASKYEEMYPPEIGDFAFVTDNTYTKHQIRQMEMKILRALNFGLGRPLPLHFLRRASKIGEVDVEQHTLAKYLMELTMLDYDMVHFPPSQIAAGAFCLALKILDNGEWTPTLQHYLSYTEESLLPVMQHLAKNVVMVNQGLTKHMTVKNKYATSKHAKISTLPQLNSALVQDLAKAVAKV
Procedure, shortened: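 Radiometric endpoint kinase assay under linear conditions: histone (1 mg/ml) phosphorylated with 15 μM ATP and [γ-32P]ATP in 50 mM HEPES pH 7.4, 10 mM MgCl2, 1 mM DTT. IC50 obtained graphically from dose-response curves of % maximal activity, read by imaging analyzer.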

[3] = total colony output, read-out: CFU IC50

IC50 [1]: 12 ± 1.8 µM | IC50 [2, 3]: 4.5 µM | IC50 (cdk1/cyclin B (CDC2)): 0.5 µM
Compound: 5-(3-aminoethylamino)-7-(3,4-dihydroxybenzyl)amino-3-isopropylpyrazolo[4,3-d]pyrimidine [Compound 201]
Colony output for CFU-E, CFU-G and CFU-M (output of the different types of myeloid colonies) [2]: significantly lower colony output

IC50 [1]: 17 ± 2.9 µM | IC50 [2, 3]: > 50 µM | IC50 (cdk1/cyclin B (CDC2)): > 100 µM
Compound: 5-(methylthio)-7-[N-(3,4-dihydroxybenzyl-N-methyl]amino-3 isopropylpyrazolo[4,3-d]pyrimidine [Compound 26]
Colony output for CFU-E, CFU-G and CFU-M (output of the different types of myeloid colonies) [2]: no significant difference

More lines, now with the values behind:

Compound: 5-(3-aminopropylamino)-7-benzylamino-3-isopropylpyrazolo[4,3-d]pyrimidine [Compound 17]
IC50 [1]: 9.3 ± 0.3 µM | IC50 [2, 3]: 17 µM | Colony output for CFU-E, CFU-G and CFU-M (output of the different types of myeloid colonies) [2]: significantly lower colony output | IC50 (cdk1/cyclin B (CDC2)): 11 µM

Compound: 5-(3-hydroxypropylamino)-7-[(R,S)-(1-phenyl-2-hydroxyethyl)amino-3-isopropylpyrazolo[4,3-d]pyrimidine [Compound 172]
IC50 [1]: 8 ± 1.5 µM | IC50 [2, 3]: > 20 µM | Colony output for CFU-E, CFU-G and CFU-M (output of the different types of myeloid colonies) [2]: significantly lower colony output | IC50 (cdk1/cyclin B (CDC2)): > 50 µM

Compound: CCCCCCNc1nc(NC(CO)c2ccccc2)c2[nH]nc(C(C)C)c2n1 (centres unmarked) [Compound 98, 5-(hexylamino)-7-(1-phenyl-2-hydroxyethylamino)-3-isopropylpyrazolo[4,3-d]pyrimidine]
IC50 ([1]; Homo sapiens, MOLT-3): 8 ± 0.4 µM | IC50 ([2]; Homo sapiens, 336 h, methylcellulose, read-out: IC50 on CD34+CD38+ hematopoietic progenitors): > 50 µM | IC50 ([2]; Homo sapiens, 336 h, total colony output, read-out: CFU IC50): 5.4 ± 0.4 µM | IC50 (cdk1/cyclin B (CDC2)): 30 µM
